From patent US9624238B2, “4H-thieno[3,2-C]chromene-based inhibitors of Notum Pectinacetylesterase and methods of their use” (Lexicon Pharmaceuticals, Inc., priority 2011, dated 2017)

How the values were obtained:
[1] = biological target: T1, human notum pectinacetyltransferase (Homo sapiens, UniProt Q6P988); assay: Reporter assay (CellSensor LEF/TCF-bla FreeStyle 293F cells, Wnt3a and notum conditioned media); format: cell-based; details: class symbols
T1 construct: made in house; unpurified conditioned medium used
T1 sequence (Q6P988 20-496): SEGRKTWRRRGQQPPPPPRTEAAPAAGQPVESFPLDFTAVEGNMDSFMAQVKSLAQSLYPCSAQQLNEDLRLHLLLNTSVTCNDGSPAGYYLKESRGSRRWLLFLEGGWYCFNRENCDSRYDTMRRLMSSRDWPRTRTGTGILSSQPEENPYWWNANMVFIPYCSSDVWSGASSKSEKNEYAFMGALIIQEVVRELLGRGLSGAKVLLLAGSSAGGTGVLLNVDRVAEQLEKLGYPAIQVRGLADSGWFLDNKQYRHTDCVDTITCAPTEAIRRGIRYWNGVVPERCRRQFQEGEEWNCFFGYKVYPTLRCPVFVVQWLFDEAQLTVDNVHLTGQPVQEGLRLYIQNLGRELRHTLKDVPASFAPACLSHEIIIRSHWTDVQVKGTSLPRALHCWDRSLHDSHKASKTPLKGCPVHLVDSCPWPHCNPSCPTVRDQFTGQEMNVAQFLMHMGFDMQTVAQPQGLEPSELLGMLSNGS
Procedure: Plasmid containing human notum pectinacetyltransferase in pcDNA3.1(+) vector was transfected into HEK (293 cells and clones were selecting by growing in presence of 400 ug/mL of G418. The clone containing highest expression of human notum pectinacetyltransferase in the conditioned media was maintained for all future activity assays. L cells overexpressing and secreting Wnt3a into the conditioned media were purchased from ATCC.
The assay protocol was as follows. […] The cell growth medium consisted of DMEM with 10% Dialyzed FBS, 5 μg/ml Blasticidin (Invitrogen, R210-01), 0.1 mM NEAA, 25 mM HEPES and 1×GPS. Cells were then trypsinized by first rinsing with PBS, followed by addition of 5 mL of trypsin and incubation of plates at room temperature for two minutes. A total of 10 mL of assay media (Opti-MEM, plus 0.5% dialyzed FBS, 0.1 mM NEAA, 1 mM sodium pyruvate, 10 mM HEPES, 1×GPS) was then added per 15 cm plate. Cells were counted and suspended at 0.75 million cells per mL. […] After incubation of cells at 37° C. for 3 hours, 10 μL of 30 mM LiCl in assay medium was added per well, followed by incubation at 37° C. for another 3 hours. […] Ten μL of the Wnt3a/notum pentinacetyltransferase mixture was then transferred from Greiner plates to each well of the 384-well plates containing the CellSensor cells.

[2] = biological target: T1, human notum pectinacetyltransferase; assay: Binding assay (OPTS esterase substrate, fluorimetric); format: biochemical
Procedure: Plasmid containing human notum pectinacetyltransferase in pcDNA3.1(+) vector was transfected into HEK (293 cells and clones were selecting by growing in presence of 400 ug/mL of G418. Condition media from these cells was used for the assay.

[3] = given as a numeric bound above the legend's range
[4] = given as numeric bound above the legend's highest class

EC50 [1]	IC50 ([2]; class symbols)	IC50 [2, 3]	IC50 [2, 4]	SMILES
< 50 nM	< 50 nM	–	–	Cc1ccc(Cl)c2c1-c1sc(C(N)=O)cc1CO2
< 50 nM	< 1000 nM	–	–	Cc1cc(Cl)cc2c1OCc1cc(C(N)=O)sc1-2
< 50 nM	< 1000 nM	–	–	NC(=O)c1cc2c(s1)-c1cc(Br)ccc1OC2
< 50 nM	< 100 nM	–	–	COc1ccc2c(c1F)CCc1cc(C(N)=O)sc1-2
< 50 nM	< 50 nM	–	–	NC(=O)c1cc2c(s1)-c1c(cc(F)c(F)c1F)OC2
< 50 nM	< 50 nM	–	–	O=C(c1cc2c(s1)-c1cc(F)cc(F)c1SC2)N1CCC(O)C1 (centres unmarked)
< 100 nM	< 2000 nM	–	–	COc1ccc2c(c1)OCc1cc(C(=O)O)sc1-2
< 50 nM	< 100 nM	–	–	O=C(c1cc2c(s1)-c1c(F)ccc(F)c1SC2)N1CC[C@H](F)C1
< 100 nM	< 100 nM	–	–	O=C(O)c1cc2c(s1)-c1cc(Cl)ccc1OCC2
< 50 nM	< 1000 nM	–	–	COc1ccc2c(c1Cl)CCc1cc(C(=O)NCCc3nnn[nH]3)sc1-2
< 50 nM	< 1000 nM	–	–	Cc1ccc2c(c1)-c1sc(C(=O)O)cc1CO2
< 50 nM	< 100 nM	–	–	Cc1ccc2c(c1Cl)CCc1cc(C(=O)O)sc1-2
< 500 nM	–	> 2000 nM	–	NC(=O)c1cc2c(s1)-c1cc(Cl)c(C(F)(F)F)cc1OC2
< 50 nM	< 50 nM	–	–	NC(=O)c1cc2c(s1)-c1ccc(F)cc1CC2
< 50 nM	< 50 nM	–	–	Cc1ccc2c(c1F)CCc1cc(C(N)=O)sc1-2
< 50 nM	–	> 2000 nM	–	O=C(NC1CC1)c1cc2c(s1)-c1ccccc1CC2
< 50 nM	< 1000 nM	–	–	O=C(c1cc2c(s1)-c1ccc(Cl)c(Cl)c1OC2)N1CCC(F)C1 (centres unmarked)
< 50 nM	< 50 nM	–	–	NC(=O)c1cc2c(s1)-c1c(cccc1C(F)(F)F)OC2
< 50 nM	< 1000 nM	–	–	COC(=O)C1CN(C(=O)c2cc3c(s2)-c2cc(C)cc(F)c2CC3)CC1c1ccccc1 (centres unmarked)
< 50 nM	< 50 nM	–	–	NC(=O)c1cc2c(s1)-c1cc(F)cc(F)c1OC2
< 50 nM	–	> 2000 nM	–	Cc1cc(C)c2c(c1)OCc1cc(C(=O)O)sc1-2
< 50 nM	< 50 nM	–	–	Cc1c(F)ccc2c1OCc1cc(C(N)=O)sc1-2
< 50 nM	< 1000 nM	–	–	CCOC(=O)c1cc2c(s1)-c1ccc(C)c(Cl)c1CC2
< 50 nM	< 2000 nM	–	–	CC1Cc2ccccc2-c2sc(C(=O)O)cc21 (centres unmarked)
< 50 nM	< 1000 nM	–	–	O=C(O)c1cc2c(s1)-c1ccc(F)cc1SC2
< 50 nM	< 50 nM	–	–	O=C(O)c1cc2c(s1)-c1cc(Br)cc(Cl)c1OC2

EC50 [1]	IC50 ([2]; class symbols)	IC50 [2, 3]	IC50 [2, 4]	SMILES
< 50 nM	< 100 nM	–	–	N#CC1CCN(C(=O)c2cc3c(s2)-c2ccc(Cl)c(Cl)c2OC3)C1 (centres unmarked)
< 50 nM	< 1000 nM	–	–	COC(=O)c1cc2c(s1)-c1ccccc1CC2
< 50 nM	< 1000 nM	–	–	CCC1Cc2cc(C(=O)O)sc2-c2c(F)ccc(F)c21 (centres unmarked)
< 50 nM	–	> 2000 nM	–	Cc1ccc(C)c2c1SCc1cc(C(=O)O)sc1-2
< 50 nM	< 2000 nM	–	–	Cc1ccc2c(c1)-c1sc(C(N)=O)cc1CS2
< 1000 nM	–	> 2000 nM	–	CC(C)c1ccc2c(c1)-c1sc(C(N)=O)cc1CO2
< 50 nM	< 50 nM	–	–	NC(=O)c1cc2c(s1)-c1c(F)ccc(Cl)c1OC2
< 50 nM	< 100 nM	–	–	NC(=O)c1cc2c(s1)-c1ccc(Cl)c(Cl)c1OC2
< 50 nM	< 50 nM	–	–	Cc1cc(C)c2c(c1)-c1sc(C(=O)O)cc1CC2
< 500 nM	–	–	> 2000 nM	COCCNC(=O)c1cc2c(s1)-c1cc(F)ccc1OCC2
< 1000 nM	< 1000 nM	–	–	O=C(O)c1cc2c(s1)-c1cc(F)ccc1CCC2
< 1000 nM	–	–	> 2000 nM	N#Cc1ccc2c(c1)-c1sc(C(=O)O)cc1CC2
< 500 nM	–	> 2000 nM	–	Cc1ccc(C)c2c1-c1sc(C(=O)O)cc1CS2(=O)=O
< 50 nM	< 50 nM	–	–	CCOC(=O)c1cc2c(s1)-c1ccc(C)c(C#N)c1CC2 [ethyl 6-cyano-7-methyl-4,5-dihydronaphtho[1,2-b]thiophene-2-carboxylate]
< 50 nM	< 100 nM	–	–	COCCNC(=O)c1cc2c(s1)-c1cccc(F)c1CC2
< 50 nM	< 1000 nM	–	–	CC1(C)Cc2cc(C(=O)O)sc2-c2c(F)ccc(F)c21
< 500 nM	–	–	> 2000 nM	COC(C)(C)CNC(=O)c1cc2c(s1)-c1ccc(Cl)c(F)c1OC2
< 50 nM	< 1000 nM	–	–	CC1Cc2cc(C(=O)O)sc2-c2ccc(Cl)cc21 (centres unmarked)
< 50 nM	< 50 nM	–	–	O=C(O)c1cc2c(s1)-c1cccc(F)c1CC2
< 50 nM	< 1000 nM	–	–	Cc1cc(C)c2c(c1)-c1sc(C(N)=O)cc1CC2 [6,8-dimethyl-4,5-dihydronaphtho[1,2-b]thiophene-2-carboxamide]
< 50 nM	< 50 nM	–	–	Cc1cc(F)c2c(c1)-c1sc(C(N)=O)cc1CC2
< 50 nM	< 50 nM	–	–	NC(=O)c1cc2c(s1)-c1ccc(Cl)c(F)c1SC2
< 50 nM	< 1000 nM	–	–	N#Cc1cccc2c1OCc1cc(C(N)=O)sc1-2
< 50 nM	< 100 nM	–	–	O=C(O)c1cc2c(s1)-c1ccc(Cl)c(Cl)c1SC2
< 50 nM	< 100 nM	–	–	COc1ccc2c(c1Cl)CCc1cc(C(=O)N3CCC(C#N)C3)sc1-2 (centres unmarked)
< 50 nM	< 1000 nM	–	–	CCOC(=O)c1cc2c(s1)-c1cc(C)cc(F)c1CC2

EC50 [1]	IC50 ([2]; class symbols)	IC50 [2, 3]	IC50 [2, 4]	SMILES
< 50 nM	< 50 nM	–	–	COC1CCN(C(=O)c2cc3c(s2)-c2cccc(F)c2CC3)C1 (centres unmarked)
< 50 nM	< 50 nM	–	–	Cc1cc(Cl)c2c(c1)-c1sc(C(N)=O)cc1CC2
< 50 nM	< 100 nM	–	–	O=C(O)c1cc2c(s1)-c1cc(Br)ccc1OC2
< 50 nM	< 100 nM	–	–	CC1Oc2ccc(F)cc2-c2sc(C(N)=O)cc21 (centres unmarked)
< 500 nM	–	> 2000 nM	–	COc1cccc2c1OCc1cc(C(=O)O)sc1-2
< 50 nM	< 2000 nM	–	–	Cc1cc(C)c2c(c1)OCc1cc(C(N)=O)sc1-2
< 100 nM	–	–	> 2000 nM	O=C(O)c1cc2c(s1)-c1ccccc1SCC2
< 500 nM	< 1000 nM	–	–	O=C(O)c1cc2c(s1)-c1cc(F)cc(F)c1S(=O)(=O)C2 [6,8-difluoro-4H-thieno[3,2-c]thiochromene-2-carboxylic acid 5,5-dioxide]
< 50 nM	< 50 nM	–	–	O=C1CCN(C(=O)c2cc3c(s2)-c2cc(F)cc(F)c2SC3)C1
< 50 nM	< 1000 nM	–	–	Nc1c(C(=O)O)sc2c1CSc1ccccc1-2 [3-amino-4H-thieno[3,2-c]thiochromene-2-carboxylic acid]
< 50 nM	< 1000 nM	–	–	O=C(NCCc1nnn[nH]1)c1cc2c(s1)-c1cccc(F)c1CC2
< 50 nM	< 100 nM	–	–	O=C(O)c1cc2c(s1)-c1ccc(Cl)c(F)c1OC2
< 50 nM	< 100 nM	–	–	O=C(O)c1cc2c(s1)-c1cc(F)c(Cl)cc1SC2
< 50 nM	< 1000 nM	–	–	COc1ccc2c(c1Cl)CCc1cc(C(=O)NCCC#N)sc1-2
< 50 nM	< 100 nM	–	–	O=C(O)c1cc2c(s1)-c1ccc(Cl)cc1OC2
< 50 nM	< 1000 nM	–	–	NC(=O)c1cc2c(s1)-c1cc(Cl)c(Cl)cc1CC2
< 50 nM	< 2000 nM	–	–	O=C(O)c1cc2c(s1)-c1cc(F)c(Cl)cc1S(=O)(=O)C2
< 50 nM	< 100 nM	–	–	O=C(O)c1cc2c(s1)-c1c(F)ccc(F)c1OC2
< 50 nM	< 50 nM	–	–	CC1Cc2cc(C(N)=O)sc2-c2cc(F)c(F)cc21 (centres unmarked)
< 50 nM	< 100 nM	–	–	Cc1ccc2c(c1F)CCc1cc(C(=O)O)sc1-2
< 50 nM	< 2000 nM	–	–	NC(=O)c1cc2c(s1)-c1cc(Cl)cc(Cl)c1SC2
< 50 nM	< 50 nM	–	–	Cc1ccc2c(c1[N+](=O)[O-])CCc1cc(C(=O)O)sc1-2
< 50 nM	< 2000 nM	–	–	CC(C)(C)OC(=O)NCCNC(=O)c1cc2c(s1)-c1ccccc1CC2
< 50 nM	< 100 nM	–	–	N#Cc1cccc2c1OCc1cc(C(=O)O)sc1-2
